From ChEMBL document CHEMBL1201862, “PubChem BioAssay data set” (2004) come the findings set out here.

Assay [1] deals with T1, Short transient receptor potential channel 4 (Mus musculus, UniProt Q9QUQ5).
T1 sequence (Q9QUQ5 whole entry): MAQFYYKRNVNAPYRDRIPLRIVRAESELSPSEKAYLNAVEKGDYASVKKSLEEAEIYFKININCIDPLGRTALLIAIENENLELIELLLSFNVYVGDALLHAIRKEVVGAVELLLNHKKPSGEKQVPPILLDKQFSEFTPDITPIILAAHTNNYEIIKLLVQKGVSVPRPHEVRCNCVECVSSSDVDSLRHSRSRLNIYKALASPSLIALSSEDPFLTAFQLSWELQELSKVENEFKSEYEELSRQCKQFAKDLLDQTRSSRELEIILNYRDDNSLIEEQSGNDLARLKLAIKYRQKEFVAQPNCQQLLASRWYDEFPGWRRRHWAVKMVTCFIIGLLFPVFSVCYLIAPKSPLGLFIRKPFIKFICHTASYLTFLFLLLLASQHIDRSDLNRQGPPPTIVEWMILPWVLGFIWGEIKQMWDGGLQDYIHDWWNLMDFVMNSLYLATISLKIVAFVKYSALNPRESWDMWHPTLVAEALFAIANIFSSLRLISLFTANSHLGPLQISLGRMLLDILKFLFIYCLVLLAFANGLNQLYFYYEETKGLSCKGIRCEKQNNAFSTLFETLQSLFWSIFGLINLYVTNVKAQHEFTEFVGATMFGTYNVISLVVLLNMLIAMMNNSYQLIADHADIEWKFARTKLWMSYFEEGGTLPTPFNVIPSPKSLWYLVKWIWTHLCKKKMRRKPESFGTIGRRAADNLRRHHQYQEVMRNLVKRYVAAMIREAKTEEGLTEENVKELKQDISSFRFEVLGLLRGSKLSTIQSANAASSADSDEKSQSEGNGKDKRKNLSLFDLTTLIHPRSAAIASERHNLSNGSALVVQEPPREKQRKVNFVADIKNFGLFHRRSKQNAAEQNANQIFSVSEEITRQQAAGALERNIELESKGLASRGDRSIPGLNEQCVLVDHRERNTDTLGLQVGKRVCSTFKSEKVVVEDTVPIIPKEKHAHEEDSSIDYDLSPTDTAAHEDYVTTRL
In words: calcium entry via TRPC4 opening agents – cell-based, HEK293 TRPC4/mu-opioid, Fluo-4 calcium, dose response (AID 434937). It is filed as functional.

The next assay addresses T2, Streptokinase A (Streptococcus pyogenes serotype M1, UniProt P10520).
T2 sequence (P10520 whole entry): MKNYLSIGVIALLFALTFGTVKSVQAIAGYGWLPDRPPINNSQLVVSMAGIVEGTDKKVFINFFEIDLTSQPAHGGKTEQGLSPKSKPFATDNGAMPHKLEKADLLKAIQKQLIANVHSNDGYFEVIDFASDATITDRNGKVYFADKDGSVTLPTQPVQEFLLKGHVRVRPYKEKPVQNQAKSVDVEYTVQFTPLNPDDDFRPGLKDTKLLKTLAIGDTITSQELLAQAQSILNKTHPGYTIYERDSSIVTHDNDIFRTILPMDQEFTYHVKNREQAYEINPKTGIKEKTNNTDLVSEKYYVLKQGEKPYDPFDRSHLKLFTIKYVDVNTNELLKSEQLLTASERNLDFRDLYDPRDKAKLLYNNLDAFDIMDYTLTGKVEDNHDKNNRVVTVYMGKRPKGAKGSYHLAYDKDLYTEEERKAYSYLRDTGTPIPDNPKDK
Kind of assay: viability-normalized secreted streptokinase activity reduction – plasminogen activation absorbance, OD405, dose response (AID 1914).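 Further: secreted streptokinase activity via plasminogen activation per viability signal from cell pellet.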 It is filed as functional, Streptococcus pyogenes M1 GAS.

In assay [2] the test system is Streptococcus sp. 'group A'. Kind of assay: Streptococcus pyogenes SK(-)GAS viability under kanamycin – luminescence, BacTiterGlo, confirmation, counter-screen for streptokinase expression inhibitor project, dose response (AID 1900). Format: functional, organism-based. (Counterscreens check selectivity or assay interference.)
A further assay concerns Streptococcus. Kind of assay: GAS UMAA2166 growth inhibition – luminescence, BacTiterGlo, counter-screen for streptokinase expression inhibitor project, dose response (AID 1915).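 Further: potency for reduction of bacterial viability or growth.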 It is filed as functional, organism-based.
For the next assay, the target named is Large T antigen (Simian virus 40, UniProt P03070). It is filed as functional, Betapolyomavirus macacae.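 Further: Confirmatory-stage PubChem screen for compounds that inhibit SV40 T antigen.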
Large T antigen, sequence (P03070 whole entry): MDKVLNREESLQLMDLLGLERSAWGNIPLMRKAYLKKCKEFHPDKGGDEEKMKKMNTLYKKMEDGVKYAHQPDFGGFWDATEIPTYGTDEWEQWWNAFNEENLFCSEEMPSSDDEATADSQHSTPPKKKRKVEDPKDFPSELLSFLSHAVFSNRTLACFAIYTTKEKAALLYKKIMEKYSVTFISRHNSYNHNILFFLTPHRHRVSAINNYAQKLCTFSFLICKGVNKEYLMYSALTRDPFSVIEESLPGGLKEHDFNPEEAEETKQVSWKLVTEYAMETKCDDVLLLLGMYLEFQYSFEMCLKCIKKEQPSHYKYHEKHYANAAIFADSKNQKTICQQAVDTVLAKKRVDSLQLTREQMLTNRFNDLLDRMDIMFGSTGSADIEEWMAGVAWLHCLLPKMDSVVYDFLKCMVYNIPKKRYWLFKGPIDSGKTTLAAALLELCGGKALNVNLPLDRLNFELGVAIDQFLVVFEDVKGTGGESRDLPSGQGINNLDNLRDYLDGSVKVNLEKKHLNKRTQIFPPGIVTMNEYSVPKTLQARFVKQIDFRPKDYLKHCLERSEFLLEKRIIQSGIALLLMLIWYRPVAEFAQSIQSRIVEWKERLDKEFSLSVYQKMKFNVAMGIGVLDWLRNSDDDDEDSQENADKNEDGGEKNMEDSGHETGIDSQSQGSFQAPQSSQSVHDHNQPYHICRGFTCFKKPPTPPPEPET
The target of assay [3] is Induced myeloid leukemia cell differentiation protein Mcl-1 (Homo sapiens, UniProt Q07820). Format: functional.
Induced myeloid leukemia cell differentiation protein Mcl-1, sequence (Q07820 whole entry): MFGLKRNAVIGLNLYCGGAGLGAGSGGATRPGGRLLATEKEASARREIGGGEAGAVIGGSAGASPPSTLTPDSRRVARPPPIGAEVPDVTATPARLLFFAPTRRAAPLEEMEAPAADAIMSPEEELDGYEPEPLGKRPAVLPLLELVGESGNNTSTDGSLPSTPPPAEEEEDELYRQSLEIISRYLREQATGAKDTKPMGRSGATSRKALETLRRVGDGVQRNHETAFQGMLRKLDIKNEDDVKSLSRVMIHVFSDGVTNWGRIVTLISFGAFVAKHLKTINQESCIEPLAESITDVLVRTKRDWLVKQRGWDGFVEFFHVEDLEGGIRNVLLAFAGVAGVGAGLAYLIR
Assay [4] can be described thus: viability of PTEN-deleted HCT116 cells – cell-based, HCT116 PTEN knockout, dose response (AID 1047).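 Further: HCT116 colon tumor cells with PTEN knocked out; cells exposed to compound for 60 hours before readout; potency for loss of cell viability measured by luminescence.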 It is filed as functional.
Assay [5] can be described thus: viability of HCT116 lacking mutant beta-catenin – cell-based, human colon tumor, dose response (AID 1045).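 Further: HCT116 colon tumor cells with beta catenin knocked out; cells exposed to compound for 60 hours.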 Format: functional.
Assay [6] is described as follows: microbe, parasite or virus in culture. It is filed as functional. Particulars: Mycobacterium tuberculosis.
The target in another assay is Nonstructural protein 1 (Influenza A virus, UniProt Q194T2). Format: functional, Influenza A virus (A/California/07/2009(H1N1)).
Nonstructural protein 1, sequence (Q194T2 whole entry): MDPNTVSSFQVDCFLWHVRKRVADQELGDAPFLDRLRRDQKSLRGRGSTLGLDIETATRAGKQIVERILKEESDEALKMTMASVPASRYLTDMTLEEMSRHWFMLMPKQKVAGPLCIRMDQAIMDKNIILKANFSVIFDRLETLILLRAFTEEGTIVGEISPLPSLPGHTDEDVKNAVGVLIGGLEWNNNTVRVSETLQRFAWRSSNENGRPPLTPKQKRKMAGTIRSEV
Assay [7] deals with T3, Histone-lysine N-methyltransferase NSD2 (Homo sapiens, UniProt O96028).
T3 sequence (O96028 whole entry): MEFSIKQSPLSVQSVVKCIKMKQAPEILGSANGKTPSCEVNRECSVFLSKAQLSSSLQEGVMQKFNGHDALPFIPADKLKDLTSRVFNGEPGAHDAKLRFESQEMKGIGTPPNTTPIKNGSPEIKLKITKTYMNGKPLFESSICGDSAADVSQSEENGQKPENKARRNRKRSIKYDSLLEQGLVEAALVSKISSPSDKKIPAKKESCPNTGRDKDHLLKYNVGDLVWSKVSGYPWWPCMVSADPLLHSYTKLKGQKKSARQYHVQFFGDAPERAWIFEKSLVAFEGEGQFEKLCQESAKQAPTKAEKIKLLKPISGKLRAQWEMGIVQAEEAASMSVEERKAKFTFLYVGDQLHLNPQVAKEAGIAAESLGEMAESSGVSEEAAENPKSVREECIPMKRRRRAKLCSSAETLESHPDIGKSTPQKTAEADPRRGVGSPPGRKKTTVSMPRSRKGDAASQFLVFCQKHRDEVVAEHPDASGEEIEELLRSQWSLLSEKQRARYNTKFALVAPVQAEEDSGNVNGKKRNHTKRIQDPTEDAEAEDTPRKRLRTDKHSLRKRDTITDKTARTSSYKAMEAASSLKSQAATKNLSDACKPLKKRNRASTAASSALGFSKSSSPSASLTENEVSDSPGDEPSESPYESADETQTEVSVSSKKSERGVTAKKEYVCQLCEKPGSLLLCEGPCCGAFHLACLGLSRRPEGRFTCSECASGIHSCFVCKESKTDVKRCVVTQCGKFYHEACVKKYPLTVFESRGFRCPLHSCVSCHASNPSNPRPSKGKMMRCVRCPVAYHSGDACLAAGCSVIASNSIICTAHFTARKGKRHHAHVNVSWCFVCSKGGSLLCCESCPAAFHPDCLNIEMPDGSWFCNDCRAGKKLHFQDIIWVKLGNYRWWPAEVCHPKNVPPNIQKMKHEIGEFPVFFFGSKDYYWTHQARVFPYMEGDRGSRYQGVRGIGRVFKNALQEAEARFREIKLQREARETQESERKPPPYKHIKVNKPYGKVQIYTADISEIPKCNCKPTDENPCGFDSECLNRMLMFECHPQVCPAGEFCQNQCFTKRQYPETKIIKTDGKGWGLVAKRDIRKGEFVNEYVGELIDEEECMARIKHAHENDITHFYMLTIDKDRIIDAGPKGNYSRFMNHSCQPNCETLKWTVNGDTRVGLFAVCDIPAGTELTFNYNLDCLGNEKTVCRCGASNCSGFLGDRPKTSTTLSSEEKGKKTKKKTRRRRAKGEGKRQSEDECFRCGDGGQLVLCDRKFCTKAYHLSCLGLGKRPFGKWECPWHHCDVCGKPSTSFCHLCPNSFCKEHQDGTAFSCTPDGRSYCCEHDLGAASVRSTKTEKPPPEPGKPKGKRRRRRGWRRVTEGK
It is filed as biochemical.

The target in assay [8] is T4, Mannose-6-phosphate isomerase (Homo sapiens, UniProt P34949).
T4 sequence (P34949 whole entry): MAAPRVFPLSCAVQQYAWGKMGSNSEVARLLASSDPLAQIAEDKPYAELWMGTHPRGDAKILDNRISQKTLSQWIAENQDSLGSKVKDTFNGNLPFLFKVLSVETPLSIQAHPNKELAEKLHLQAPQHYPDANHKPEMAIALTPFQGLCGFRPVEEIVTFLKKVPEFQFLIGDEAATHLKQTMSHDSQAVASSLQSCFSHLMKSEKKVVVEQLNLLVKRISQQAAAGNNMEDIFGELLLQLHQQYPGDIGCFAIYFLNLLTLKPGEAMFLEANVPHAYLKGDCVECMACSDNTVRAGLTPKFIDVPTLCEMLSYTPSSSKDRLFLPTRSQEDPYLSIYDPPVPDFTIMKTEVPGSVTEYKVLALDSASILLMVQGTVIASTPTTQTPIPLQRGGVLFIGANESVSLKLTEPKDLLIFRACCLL
In words: MPI inhibition at elevated mannose 6-phosphate – biochemical, fluorescence intensity, high mannose 6-phosphate, primary screen (AID 1220).

Assay [9] deals with T5, Rac GTPase-activating protein 1 (Homo sapiens, UniProt Q9H0H5).
T5 sequence (Q9H0H5 whole entry): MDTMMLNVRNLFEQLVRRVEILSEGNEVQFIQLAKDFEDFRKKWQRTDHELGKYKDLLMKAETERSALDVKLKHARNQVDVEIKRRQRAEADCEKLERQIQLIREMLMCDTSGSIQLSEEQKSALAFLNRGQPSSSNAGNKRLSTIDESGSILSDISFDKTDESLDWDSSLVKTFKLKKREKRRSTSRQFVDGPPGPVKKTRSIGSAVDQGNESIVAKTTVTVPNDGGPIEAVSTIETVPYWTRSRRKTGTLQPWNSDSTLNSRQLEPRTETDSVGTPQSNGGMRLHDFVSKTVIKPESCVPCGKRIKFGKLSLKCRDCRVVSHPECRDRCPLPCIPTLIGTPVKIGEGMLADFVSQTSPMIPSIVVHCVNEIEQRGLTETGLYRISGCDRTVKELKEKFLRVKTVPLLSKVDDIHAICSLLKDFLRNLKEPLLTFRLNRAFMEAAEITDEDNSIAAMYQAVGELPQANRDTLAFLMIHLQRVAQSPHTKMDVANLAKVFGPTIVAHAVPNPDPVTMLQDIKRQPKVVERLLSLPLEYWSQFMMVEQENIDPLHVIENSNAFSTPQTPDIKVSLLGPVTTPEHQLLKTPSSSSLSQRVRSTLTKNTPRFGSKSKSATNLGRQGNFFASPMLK
Kind of assay: blockers of MgcRacGAP-driven Rac1 GTP hydrolysis – biochemical, ADP Hunter fluorescence, primary and confirmatory, confirmation (AID 624330). It is filed as functional.

Calls of active or inactive are those of the source.

Regarding `Cc1ccccc1N=C(S)NCCc1ccccn1`, the EC50 in assay [1] is 5.31 µM (active).
Turning to `CC(=O)O[C@H]1C[C@@]2(C)[C@@H](C[C@@H](O)[C@H]3[C@@]4(C)CC[C@@H](O)[C@@H](C)[C@@H]4CC[C@@]32C)/C1=C(\CCC=C(C)C)C(=O)O`, the EC50 at Streptokinase A was 0.362 µM (active); in [2], 0.161 µM (active); in the assay on Streptococcus, 0.947 µM (active). For the same compound, at Large T antigen, the IC50 is 20.4 µM (active).
As for `COc1ccc(N2CCN(C(=O)c3ccc(CSc4ccccc4)cc3)CC2)cc1`, the IC50 in assay [3] was 4.83 µM (not active).
Regarding `Cc1cncn1CCc1nc2c3ccccc3nc(SCC(=O)Nc3cccc(Cl)c3)n2n1`, the EC50 is 13.3 µM (active) in assay [4] and 10.7 µM (active) in [5]. In addition, in assay [6], the CC50 was 14.3 µM (active).
`COc1ccc(CNCCc2c[nH]c3ccccc23)cc1OC`: the EC50 in assay [1] was 5.96 µM (active).
On the same count and under the same terms, next, `N=C(N)NN=C1CCCCCCCCCCC1`: 7.5 µM (active).
On to `COc1ccc(NC(=O)CSC2=C(C#N)C(c3ccco3)C(C(=O)Nc3nc4ccccc4s3)=C(C)N2)cc1` (configuration not stated), for which, in [6], the CC50 is > 40 µM (active).
Take `CCC(=O)N1CCc2cc(Br)cc(S(=O)(=O)NCCCN(C)Cc3ccccc3)c21`: in assay [1], the EC50 is 0.0947 µM (active).
With `CN(C)c1cccc2c1C(=O)c1ccccc1C2=O`, the IC50 on Nonstructural protein 1 is 10.1 µM (active). Also, the AC50 in [7] is 5.57 µM (active).
Regarding `Nc1cc2nc[nH]c2cc1N`, the half-maximal inhibitory concentration (IC50) in [3] is > 54 µM (not active); in [8] it was > 50 µM (not active).
Turning to `CCOC(=O)c1cc(C)n(CCc2c[nH]cn2)c1C`, in [1], the concentration for a half-maximal effect (EC50) was 0.0533 µM (active).
Consider `CC(C)(C)c1cc(C(=O)N/N=C/c2ccc(O)cc2)n(-c2ccccc2)n1`, for which the IC50 is 122 µM (active) in assay [9] and 46.2 µM (active) at Large T antigen.
On to `Oc1ccc(/C=N/Nc2ccc(C(F)(F)F)cn2)cc1O`, for which the 50% inhibitory concentration (IC50) on Large T antigen was 48.3 µM (active).
As for `CCOc1ccc(/C=N/n2nnnc2N)cc1O`, the IC50 on Large T antigen is 9.64 µM (active).

The term EC50 denotes the concentration that produces a half-maximal response. As usually defined, the IC50 is the point on the concentration scale where inhibition reaches its midpoint. For orientation: AC50 means the concentration giving half of the maximal activity seen.
